Laboratory results: patent US10294202B2, “Pyrrolidinones as herbicides” (FMC Corporation, priority 2013, dated 2019)

Key:
[1] = system: blackgrass; experiment: Test A postemergence herbicide test; assay type: in vivo, Alopecurus myosuroides
Summary of the method: (§1)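 Plants at the one- to two-leaf stage, 2–10 cm tall, grown in loam/sand pots, received postemergence sprays of the test chemicals. After about 10 days in the greenhouse, injury was scored visually against untreated controls on a 0–100 scale (0 none, 100 complete control).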

[2] = system: ducksalad; experiment: Test C flooded paddy test; assay type: in vivo, Heteranthera limosa; settings: Flood, scale of 0 to 100 where 0 is no effect and 100 is complete control, 13 to 15 days
Summary of the method: (§2)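 Plants grown to the 2-leaf stage; pots flooded to 3 cm above soil and compound applied directly into the paddy water, depth kept throughout. Greenhouse 13 to 15 days, then visual rating vs untreated controls on 0–100 scale (0 no effect, 100 complete control); dash means no result.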

[3] = system: rice; experiment: Test C flooded paddy test; assay type: in vivo, Oryza sativa; settings: Flood, scale of 0 to 100 where 0 is no effect and 100 is complete control, 13 to 15 days
Summary of the method: as §2

[4] = system: ryegrass, Italian; experiment: Test A pre-/postemergence herbicide test; assay type: in vivo, Lolium multiflorum
Summary of the method: (§3)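 Formulated compound (non-phytotoxic solvent, surfactant) sprayed pre- onto soil of seeded loam/sand pots or post- onto seedlings at 1–2 leaves; ~10 d greenhouse; 0–100 visual control rating versus untreated.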

[5] = system: sedge, umbrella; experiment: Test C flooded paddy test; assay type: in vivo, Cyperus difformis; settings: Flood, scale of 0 to 100 where 0 is no effect and 100 is complete control, 13 to 15 days
Summary of the method: as §2

[6] = system: galium; experiment: Test A postemergence herbicide test; assay type: in vivo, Galium aparine
Summary of the method: as §1

[7] = system: ragweed; experiment: Test A pre-/postemergence herbicide test; assay type: in vivo, Ambrosia elatior
Summary of the method: as §3

[8] = system: kochia; experiment: Test A pre-/postemergence herbicide test; assay type: in vivo, Kochia scoparia
Summary of the method: as §3

[9] = 125 g ai/ha, 0 to 100 scale, 0 is no effect, 100 is complete control
[10] = 125 g ai/ha, visual rating, 0 to 100 scale, 0 no effect, 100 complete control, approximately 10 days, preemergence
[11] = Postemergence, 125 g ai/ha, 0 to 100 scale, 0 is no effect, 100 is complete control
[12] = preemergence, 500 g ai/ha, 0 to 100 scale, 0 is no effect and 100 is complete control
[13] = 125 g ai/ha, visual rating on 0 to 100 scale (0 no effect, 100 complete control), approx. 10 days
[14] = 500 g ai/ha, 0 to 100 scale (0 no effect, 100 complete control)
[15] = Postemergence, 125 g ai/ha, visual rating on 0 to 100 scale (0 no effect, 100 complete control), approx. 10 days
[16] = Postemergence, 500 g ai/ha, 0 to 100 scale (0 no effect, 100 complete control)
[17] = Preemergence, 125 g ai/ha, 0 to 100 scale where 0 is no effect and 100 is complete control
[18] = Preemergence, 500 g ai/ha, visual rating on 0 to 100 scale (0 no effect, 100 complete control)

SMILES	Plant response rating, Ducksalad ([2]; 31 g ai/ha)	Plant response rating, Ducksalad ([2]; 62 g ai/ha)	Plant response rating, Ducksalad ([2]; 125 g ai/ha)	Plant response rating, Ducksalad ([2]; 250 g ai/ha)	Plant response rating, Rice ([3]; 31 g ai/ha)	Plant response rating, Rice ([3]; 62 g ai/ha)	Plant response rating, Rice ([3]; 125 g ai/ha)	Plant response rating, Rice ([3]; 250 g ai/ha)	Plant response rating, Sedge, Umbrella ([5]; 31 g ai/ha)	Plant response rating, Sedge, Umbrella ([5]; 62 g ai/ha)	Plant response rating, Sedge, Umbrella ([5]; 125 g ai/ha)	Plant response rating, Sedge, Umbrella ([5]; 250 g ai/ha)	Plant response rating, Blackgrass [1, 13]	Plant response rating, Blackgrass [1, 14]	Plant response rating, Ryegrass, Italian [4, 15]	Plant response rating, Ryegrass, Italian [4, 16]	Plant response rating, Ryegrass, Italian [4, 17]	Ryegrass, Italian plant response rating [4, 18]	Plant response rating, Galium [6, 13]	Plant response rating, Galium [6, 14]	other results
O=C1NCC(c2cccc(OC(F)F)c2)C1C(=O)Nc1cccc(F)c1F (stereo not drawn) [Compound 224]	0	40	80	100	0	0	0	20	0	0	0	0	–	–	–	–	–	–	–	–	Plant response rating, Blackgrass [1, 9]: 60; Blackgrass plant response rating (0 to 100 scale, 0 is no effect, 100 is complete control) ([1]; 500 g ai/ha): 70; Plant response rating, Ryegrass, Italian [4, 10]: 60; Plant response rating, Ryegrass, Italian [4, 11]: 50; Ryegrass, Italian plant response rating (0 to 100 scale, 0 is no effect, 100 is complete control) ([4]; Postemergence, 500 g ai/ha): 60; Plant response rating, Ryegrass, Italian [4, 12]: 70; Plant response rating, Galium [6, 9]: 70; Galium plant response rating (0 to 100 scale, 0 is no effect, 100 is complete control) ([6]; 500 g ai/ha): 70; Plant response rating, Ragweed [7, 10]: 90; Plant response rating, Ragweed [7, 11]: 40; Ragweed plant response rating (0 to 100 scale, 0 is no effect, 100 is complete control) ([7]; Postemergence, 500 g ai/ha): 60; Plant response rating, Ragweed [7, 12]: 90; Plant response rating, Kochia [8, 10]: 80; Plant response rating, Kochia [8, 11]: 80; Kochia plant response rating (0 to 100 scale, 0 is no effect, 100 is complete control) ([8]; Postemergence, 500 g ai/ha): 90; Plant response rating, Kochia [8, 12]: 90
CN1CC(c2ccc(F)c(F)c2)C(C(=O)Nc2cccc(F)c2F)C1=O (stereo not drawn) [Compound 303]	50	60	70	100	0	0	0	0	0	0	0	0	60	70	40	60	30	40	60	70	Plant response rating, Ragweed [7, 15]: 20; Plant response rating, Ragweed [7, 16]: 40; Plant response rating, Ragweed [7, 17]: 0; Plant response rating, Kochia [8, 15]: 50; Plant response rating, Kochia [8, 16]: 80; Plant response rating, Kochia [8, 17]: 70; Kochia plant response rating [8, 18]: 80
CC(C)c1cccc(C2CNC(=O)C2C(=O)Nc2ccccc2F)c1 (stereo not drawn) [Compound 318]	50	60	100	100	0	0	10	15	0	0	0	0	30	40	20	40	20	60	30	40	Plant response rating, Ragweed [7, 15]: 0; Plant response rating, Ragweed [7, 16]: 30; Plant response rating, Ragweed [7, 17]: 20; Ragweed plant response rating [7, 18]: 40; Plant response rating, Kochia [8, 15]: 20; Plant response rating, Kochia [8, 16]: 30; Plant response rating, Kochia [8, 17]: 20; Kochia plant response rating [8, 18]: 70
O=C1NCC(c2cccc(OC(F)F)c2)C1C(=O)Nc1ccccc1F (stereo not drawn) [Compound 323]	50	75	90	100	0	0	0	30	0	0	0	0	40	60	30	30	20	30	40	60	Plant response rating, Ragweed [7, 15]: 0; Plant response rating, Ragweed [7, 16]: 20; Plant response rating, Ragweed [7, 17]: 20; Ragweed plant response rating [7, 18]: 80; Plant response rating, Kochia [8, 15]: 40; Plant response rating, Kochia [8, 16]: 90; Plant response rating, Kochia [8, 17]: 50; Kochia plant response rating [8, 18]: 80
